Key:
WT BTK [1] = target: T1, WT BTK (Homo sapiens, UniProt Q06187); test: In vitro dialysis assay (irreversibility assay), WT BTK; assay type: biochemical; conditions: reversible or irreversible/covalent inhibition after 24 h dialysis
How it was run: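 Compound-BTK complex was dialyzed 24 hr against […] (cumulative factor >160,000×). Residual activity was then […] and 1 mM substrate peptide and compared with non-dialyzed samples. Buffer: 100 mM HEPES pH 7.5, 5 mM MgCl2, 1 mM DTT, BSA, Triton X-100.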

WT BTK [2] = target: T1, WT BTK; test: Caliper-based kinase assay, WT BTK; assay type: biochemical; conditions: 0.5 nM enzyme, ATP 16 μM, room temperature 3 h; read-out: WT BTK IC50 (nM) (irreversible inhibition)
Protocol: A Caliper-based kinase assay (Caliper Life Sciences, Hopkinton, Mass.) was used to measure inhibition of WT and […] Btk kinase activity of a compound of the present disclosure. […] The reaction was then terminated with EDTA, final concentration 20 mM and the phosphorylated reaction product was quantified on a Caliper Desktop Profiler (Caliper LabChip 3000).

BTK = BTK (Homo sapiens, UniProt Q06187); test: Caliper-based kinase assay, Cys-containing kinase panel: BTK; assay type: biochemical; conditions: for IC50: Cys-481 homologous kinase panel
Source text: A Caliper-based kinase assay (Caliper Life Sciences, Hopkinton, Mass.) was used to measure inhibition of kinase activity of compounds of the present disclosure.

TEC = target: T2, TEC (Homo sapiens, UniProt P42680); test: Caliper-based kinase assay, off-target TEC; assay type: biochemical; conditions: Cys-481 homologous kinase panel
T2 sequence (P42680 1-631): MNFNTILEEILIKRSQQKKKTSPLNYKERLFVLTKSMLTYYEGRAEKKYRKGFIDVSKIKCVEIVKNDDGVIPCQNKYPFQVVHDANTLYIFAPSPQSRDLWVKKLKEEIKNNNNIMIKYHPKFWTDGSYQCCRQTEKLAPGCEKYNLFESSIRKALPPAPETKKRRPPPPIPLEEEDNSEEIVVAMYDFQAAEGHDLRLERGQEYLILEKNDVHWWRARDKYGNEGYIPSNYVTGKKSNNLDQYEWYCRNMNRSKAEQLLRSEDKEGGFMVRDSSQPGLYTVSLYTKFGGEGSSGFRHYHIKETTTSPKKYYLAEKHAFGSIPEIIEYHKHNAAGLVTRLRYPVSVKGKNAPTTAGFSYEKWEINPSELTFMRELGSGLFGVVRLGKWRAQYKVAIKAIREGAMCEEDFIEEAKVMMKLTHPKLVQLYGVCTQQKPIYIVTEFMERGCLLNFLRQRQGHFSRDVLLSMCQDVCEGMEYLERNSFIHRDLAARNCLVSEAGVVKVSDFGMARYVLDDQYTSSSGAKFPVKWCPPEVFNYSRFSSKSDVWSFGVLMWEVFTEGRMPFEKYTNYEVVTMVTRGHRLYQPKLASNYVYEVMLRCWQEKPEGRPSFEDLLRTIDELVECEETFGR
Source text: A Caliper-based kinase assay (Caliper Life Sciences, Hopkinton, Mass.) was used to measure inhibition of kinase activity of compounds of the present disclosure. […]

Mice PK study = assay type: in vivo; conditions: plasma, CD-1 mouse, po, 10 mg/kg; for half-life: read-out: t ½ (converted)
Protocol: The pharmacokinetics of compounds were evaluated in CD-1 mouse via Intravenous and Oral Administration. The IV dose was administered as a slow bolus in the Jugular vein, and oral doses were administered by gavage. The formulation for IV dosing is 5% DMSO in 20% HPBCD in water, and the PO formulation is 2.5% DMSO, 10% EtOH, 20% Cremphor EL, 67.5% D5W. The PK time point for the IV arm was 5, 15, 30 min, 1, 2, 4, 6, 8, 12, 24 hours post dose, and for PO arm was 15, 30 min, 1, 2, 4, 6, 8, 12, 24 hours post dose. Approximately 0.03 mL blood was collected at each time point. Blood of each sample was transferred into plastic micro centrifuge tubes containing EDTA-K2 and plasma was collected within 15 min by centrifugation at 4000 g for 5 minutes in a 4° C. centrifuge. Plasma samples were stored in polypropylene tubes. The samples were stored in a freezer at −75±15° C. prior to analysis. Concentrations of compounds in the plasma samples were analyzed using a LC-MS/MS method. WinNonlin (Phoenix™, version 6.1) or other similar software was used for pharmacokinetic calculations. The following pharmacokinetic parameters were calculated, whenever possible from the plasma concentration versus time data: IV administration: C0, CL, Vd, T1/2, AUCinf, AUClast, MRT, Number of Points for Regression; PO administration: Cmax, Tmax, T1/2, AUCinf, AUClast, F %, Number of Points for Regression. The pharmacokinetic data was described using descriptive statistics such as mean, standard deviation. Additional pharmacokinetic or statistical analysis was performed at the discretion of the contributing scientist, and was documented in the data summary. For comparison purpose, the PK results of oral dosing of po, 25 mg/kg of Acalbrutinib, a FDA approved BTK inhibitor, were obtained using the same methods and shown in the Table below.

[3] = system: CD69 surface expression in primary human B cells; test: Inhibition of CD69 surface expression in primary human B cells; assay type: cell-based; conditions: B-cell; 1 h pre-incubation, anti-human IgM stimulation 19 hr
Protocol: Primary human B cells (CD20+, purified by negative selection) were obtained from StemCell Technologies. Prior to experiment, the cells were thawed and washed two times with RPMI growth media supplemented with 10% FBS. The cells were seeded into 24 well plate at a density of 4×10^5 cells/per a well in a total volume of 500 uL. 6 hr after plating, serial dilutions of NW-1-96 were added. Control wells received DMSO only (0.1%). After 1 h pre-incubation with compound, the cells were stimulated for 19 hr with goat anti-human IgM F(ab′)2 (10 μg/mL; ThermoFisher). After stimulation, the cells were fixed by addition of paraformaldehyde to a final concentration of 4% and incubated for 20 min at room temperature. Fixed cells were collected into Eppendorf tubes, centrifuged at 1,000×g and washed three times with 50 mM Tris pH8.0, 100 mM NaCl. After washes, the cells were re-suspended in 100 uL of 50 mM Tris pH8.0, 100 mM NaCl, 0.1% BSA supplemented with 5 ug/mL of FITC-conjugated anti-CD69 antibody (ThermoFisher) and incubated at room temperature for 2 hr. The cells were next washed 3 times with 10 volumes of 50 mM Tris pH8.0, 100 mM NaCl, 0.1% BSA and re-suspended in 150 ul of the same buffer. […] CD69 staining was detected on Synergy Neo2 fluorescent plate reader: […].

T1 sequence (Q06187 whole entry): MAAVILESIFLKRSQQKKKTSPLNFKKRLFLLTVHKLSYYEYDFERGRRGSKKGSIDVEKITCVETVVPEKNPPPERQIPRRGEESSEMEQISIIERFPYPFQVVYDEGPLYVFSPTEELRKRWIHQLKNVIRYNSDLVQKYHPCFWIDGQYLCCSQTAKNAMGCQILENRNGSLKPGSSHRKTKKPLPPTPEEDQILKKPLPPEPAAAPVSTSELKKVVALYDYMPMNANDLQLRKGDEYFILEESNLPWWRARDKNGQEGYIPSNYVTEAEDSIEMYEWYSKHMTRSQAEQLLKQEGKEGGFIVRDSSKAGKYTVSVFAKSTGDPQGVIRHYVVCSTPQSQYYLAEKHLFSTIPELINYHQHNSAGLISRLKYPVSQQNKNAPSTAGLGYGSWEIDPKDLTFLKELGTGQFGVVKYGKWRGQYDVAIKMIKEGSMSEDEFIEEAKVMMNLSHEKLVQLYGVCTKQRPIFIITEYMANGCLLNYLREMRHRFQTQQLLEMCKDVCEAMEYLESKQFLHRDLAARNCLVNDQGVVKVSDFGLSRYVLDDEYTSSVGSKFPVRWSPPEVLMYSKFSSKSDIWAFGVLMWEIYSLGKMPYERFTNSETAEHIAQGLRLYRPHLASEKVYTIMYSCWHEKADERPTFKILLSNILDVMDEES
Sequence of BTK (Q06187 whole entry): as above

| SMILES | Conclusion (WT BTK) (WT BTK [1]) | IC50 (WT BTK [2]) | IC50 (BTK) | IC50 (TEC) | AUC (Mice PK study) | half-life (Mice PK study) | Selectivity among kinases that contain a Cys homologous to Cys-481 in BTK (BTK; BTK versus BMX, TEC, TXK, BLK, HER4, EGFR, HER2) | IC50 [3] |
| --- | --- | --- | --- | --- | --- | --- | --- | --- |
| C=CC(=O)Nc1cc(Nc2nc(-c3ccnc(N4CCn5c(cc6c5CC(C)(C)C6)C4=O)c3CO)cn(C)c2=O)ccc1N1CCN(C2CCOCC2)C[C@H]1C(F)(F)F [Example 48-S, N-(5-[[6-(2-[4,4-dimethyl-9-oxo-1,10-diazatricyclo[6.4.0.0^[2,6]]dodeca-2(6),7-dien-10-yl]-3-(hydroxymethyl)pyridin-4-yl)-4-methyl-3-oxopyrazin-2-yl]amino]-2-[(2S)-4-(oxan-4-yl)-2-(trifluoromethyl)piperazin-1-yl]phenyl)prop-2-enamide] | Irreversible/covalent inhibition | 0.08 nM | 0.1 nM | 153 nM | 11600 ng·h/mL | 1 h | – | – |
| C=CC(=O)Nc1cc(Nc2nc(-c3ccnc(N4CCc5c(sc6c5CCCC6)C4=O)c3CO)cn(C)c2=O)ccc1N1CCN(C2CCOCC2)C[C@H]1C(F)(F)F [Example 55-S, N-[5-([6-[3-(hydroxymethyl)-2-[6-oxo-8-thia-5-azatricyclo[7.4.0.0^[2,7]]trideca-1(9), 2(7)-dien-5-yl]pyridin-4-yl]-4-methyl-3-oxopyrazin-2-yl]amino)-2-[(2S)-4-(oxan-4-yl)-2-(trifluoromethyl)piperazin-1-yl]phenyl]prop-2-enamide] | Irreversible/covalent inhibition | 0.43 nM | 0.25 nM | 686 nM | 74800 ng·h/mL | 1.7 h | excellent selectivity | 9.4 nM |
| CC(C)(/C=C(\C#N)C(=O)N1CCC[C@@H](n2nc(-c3ccc(Oc4ccccc4)cc3F)c3c(N)ncnc32)C1)N1CCN(C2COC2)CC1 [PRN-1008, reference compound] | – | – | – | 0.67 nM | – | – | – | 109 nM |
